# Biological target: human ACSS2 protein (Homo sapiens (Human), UniProt Q9NR19)
# Test: ACSS2 Cell-Free Activity Assay (Cell-Free IC50)
# Conditions: 10 nM human ACSS2 protein, 90 minutes at 37 C, pyrophosphatase-coupled, Biomol Green absorbance at 620 nm; read-out: ACSS2 Biochemical IC50
# Text: ACSS2 Cell-Free Activity Assay (Cell-Free IC50)
# Sequence of human ACSS2 protein (Q9NR19 whole entry): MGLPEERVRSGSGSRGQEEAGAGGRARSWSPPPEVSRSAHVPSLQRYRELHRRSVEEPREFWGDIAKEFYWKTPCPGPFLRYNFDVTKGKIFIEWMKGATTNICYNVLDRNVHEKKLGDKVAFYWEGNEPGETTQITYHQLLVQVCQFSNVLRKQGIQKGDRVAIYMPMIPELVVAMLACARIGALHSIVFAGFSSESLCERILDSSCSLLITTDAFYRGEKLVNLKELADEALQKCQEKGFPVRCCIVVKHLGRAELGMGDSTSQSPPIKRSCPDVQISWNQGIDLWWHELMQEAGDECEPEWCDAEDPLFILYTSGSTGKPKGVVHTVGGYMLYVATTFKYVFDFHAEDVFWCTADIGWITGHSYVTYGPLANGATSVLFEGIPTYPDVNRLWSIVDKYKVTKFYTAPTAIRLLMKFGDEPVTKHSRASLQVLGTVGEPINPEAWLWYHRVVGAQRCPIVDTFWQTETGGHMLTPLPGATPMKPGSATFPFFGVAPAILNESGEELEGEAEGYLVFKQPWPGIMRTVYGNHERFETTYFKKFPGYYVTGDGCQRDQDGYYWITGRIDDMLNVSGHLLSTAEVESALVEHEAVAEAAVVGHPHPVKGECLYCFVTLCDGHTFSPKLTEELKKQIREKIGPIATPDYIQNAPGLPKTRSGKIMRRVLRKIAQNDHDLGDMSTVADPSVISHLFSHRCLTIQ
row,IC50,SMILES
1,1 to 100 nM,"Cc1nn(-c2ccc(OC(F)F)cc2)c(C(F)(F)F)c1C(=O)Nc1cccc(C(C)(F)F)c1 [Compound 192, N-(3-(1,1-difluoroethyl)phenyl)-1-(4-(difluoromethoxy)phenyl)-3-methyl-5-(trifluoromethyl)-1H-pyrazole-4-carboxamide]"
2,< 1 nM,"CC1=NN(c2ccc(OC(F)F)cc2)C(=O)C1(F)C(=O)Nc1cccc(C(C)(F)F)c1 (stereo not shown) [Compound 205, N-(3-(1,1-difluoroethyl)phenyl)-1-(4-(difluoromethoxy)phenyl)-4-fluoro-3-methyl-5-oxo-4,5-dihydro-1H-pyrazole-4-carboxamide]"
3,> 100 nM,"Cc1nn(-c2ccc(OC(F)F)cc2)c(CC(C)C)c1C(=O)Nc1cccc(C(C)(F)F)c1 [Compound 150, N-(3-(1,1-difluoroethyl)phenyl)-1-(4-(difluoromethoxy)phenyl)-5-isobutyl-3-methyl-1H-pyrazole-4-carboxamide]"
4,> 100 nM,"COc1ccc(-c2nc(C)c(C(=O)Nc3cccc(C(C)(F)F)c3)o2)cc1 [Compound 142, N-(3-(1,1-difluoroethyl)phenyl)-2-(4-methoxyphenyl)-4-methyloxazole-5-carboxamide]"
5,1 to 100 nM,"Cc1nn(-c2ccc(OC(F)F)c(-c3ccccn3)c2)cc1C(=O)Nc1cccc(C(C)(F)F)c1 [Compound 175, N-[3-(1,1-difluoroethyl)phenyl]-1-[4-(difluoromethoxy)-3-(2-pyridyl)phenyl]-3-methyl-pyrazole-4-carboxamide]"
6,> 100 nM,"CCC(F)(F)c1cccc(NC(=O)c2cc(-c3ccc(OC(F)F)cn3)[nH]c2C)c1 [Compound 222, 5-(5-(difluoromethoxy)pyridin-2-yl)-N-(3-(1,1-difluoropropyl)phenyl)-2-methyl-1H-pyrrole-3-carboxamide]"
7,> 100 nM,"Cc1nn(-c2ccc(OC(F)F)cc2)c(N)c1C(=O)Nc1cccc(C(C)(F)F)c1 [Compound 171, 5-amino-N-(3-(1,1-difluoroethyl)phenyl)-1-(4-(difluoromethoxy)phenyl)-3-methyl-1H-pyrazole-4-carboxamide]"
8,1 to 100 nM,"CCC1(C(=O)Nc2cccc(C(C)(F)F)c2)C(=O)N(c2ccc(OC(F)F)cc2)N=C1C (stereo not shown) [Compound 159, N-(3-(1,1-difluoroethyl)phenyl)-1-(4-(difluoromethoxy)phenyl)-4-ethyl-3-methyl-5-oxo-4,5-dihydro-1H-pyrazole-4-carboxamide]"
9,> 100 nM,"CCC(F)(F)c1cccc(NC(=O)c2nc(-c3ccc(OC(F)F)cc3)[nH]c2C)c1 [Compound 215, 2-(4-(difluoromethoxy)phenyl)-N-(3-(1,1-difluoropropyl)phenyl)-5-methyl-1H-imidazole-4-carboxamide]"
10,1 to 100 nM,"CC1=NN(c2ccc(OC(F)F)cc2)C(=O)C1(Cl)C(=O)Nc1cccc(C(C)(F)F)c1 (stereo not shown) [Compound 172, 4-chloro-N-(3-(1,1-difluoroethyl)phenyl)-1-(4-(difluoromethoxy)phenyl)-3-methyl-5-oxo-4,5-dihydro-1H-pyrazole-4-carboxamide]"
11,> 100 nM,"Cc1nn(-c2ccc(OC(F)F)cc2)nc1C(=O)Nc1cccc(C(C)(F)F)c1 [Compound 164, N-(3-(1,1-difluoroethyl)phenyl)-2-(4-(difluoromethoxy)phenyl)-5-methyl-2H-1,2,3-triazole-4-carboxamide]"
12,1 to 100 nM,"CCC(F)(F)c1cccc(NC(=O)c2nc(-c3ccc(OC(F)F)cc3)oc2C)c1 [Compound 112, 2-(4-(difluoromethoxy)phenyl)-N-(3-(1,1-difluoropropyl)phenyl)-5-methyloxazole-4-carboxamide]"
13,1 to 100 nM,"COc1c(C)cc(N2N=C(C)C(C(=O)Nc3cccc(C(C)(F)F)c3)C2=O)cc1-c1ccccc1 (stereo not shown) [Compound 180, N-[3-(1,1-difluoroethyl)phenyl]-1-(4-methoxy-3-methyl-5-phenyl-phenyl)-3-methyl-5-oxo-4H-pyrazole-4-carboxamide]"
14,> 100 nM,"CCC(F)(F)c1cccc(NC(=O)c2cnc(-c3ccc(OC(F)F)cc3)nc2C)c1 [Compound 143, 2-[4-(difluoromethoxy)phenyl]-N-[3-(1,1-difluoropropyl)phenyl]-4-methyl-pyrimidine-5-carboxamide]"
15,> 100 nM,"Cc1nn(-c2ccc(OC(F)F)c(-c3cocn3)c2)cc1C(=O)Nc1cccc(C(C)(F)F)c1 [Compound 149, N-(3-(1,1-difluoroethyl)phenyl)-1-(4-(difluoromethoxy)-3-(oxazol-4-yl)phenyl)-3-methyl-1H-pyrazole-4-carboxamide]"
16,> 100 nM,"CC1=NN(c2ccc(OC(F)F)cc2)C(=O)[C@]1(C)C(=O)Nc1cccc(C(C)(F)F)c1 [Compound 170, (4S)—N-(3-(1,1-difluoroethyl)phenyl)-1-(4-(difluoromethoxy)phenyl)-3,4-dimethyl-5-oxo-4,5-dihydro-1H-pyrazole-4-carboxamide]"
17,1 to 100 nM,"Cc1nn(-c2ccc(OC(F)F)c(-c3ccccc3)c2)cc1C(=O)Nc1cccc(C(C)(F)F)c1 [Compound 186, N-(3-(1,1-difluoroethyl)phenyl)-1-(6-(difluoromethoxy)-[1,1’-biphenyl]-3-yl)-3-methyl-1H-pyrazole-4-carboxamide]"
18,> 100 nM,"CCC(F)(F)c1cccc(NC(=O)c2c(C)nn(-c3ccc(OC)cc3)[n+]2[O-])c1 [Compound 253, 5-((3-(1,1-difluoropropyl)phenyl)carbamoyl)-2-(4-methoxyphenyl)-4-methyl-2H-1,2,3-triazole 1-oxide]"
19,< 1 nM,"COc1c(Cc2ccccc2)cc(N2N=C(C)C(C(=O)Nc3cccc(C(C)(F)F)c3)C2=O)cc1-c1ccccc1 (stereo not shown) [Compound 122, 1-(5-benzyl-6-methoxy-[1,1′-biphenyl]-3-yl)-N-(3-(1,1-difluoroethyl)phenyl)-3-methyl-5-oxo-4,5-dihydro-1H-pyrazole-4-carboxamide]"
20,> 100 nM,CC(F)(F)c1cccc(NC(=O)C2C(=O)N(c3ccc(OC(F)F)cc3)N=C2CS)c1 (stereo not shown) [Compound 197]

# Second part, the molecule before the results:
row,SMILES,IC50
1,"Cc1nn(-c2ccc(OC(F)F)c(-c3cccnc3)c2)c(OC(=O)N2CCN(CCO)CC2)c1C(=O)Nc1cccc(C(C)(F)F)c1 [Compound 187, 4-((3-(1,1-difluoroethyl)phenyl)carbamoyl)-1-(4-(difluoromethoxy)-3-(pyridin-3-yl)phenyl)-3-methyl-1H-pyrazol-5-yl 4-(2-hydroxyethyl)piperazine-1-carboxylate]",> 100 nM
2,"CCC(F)(F)c1cccc(NC(=O)c2cnc(-c3ccc(OC(F)F)c(-c4ccccc4)c3)nc2C)c1 [Compound 138, 2-[4-(difluoromethoxy)-3-phenyl-phenyl]-N-[3-(1,1-difluoropropyl)phenyl]-4-methyl-pyrimidine-5-carboxamide]",> 100 nM
3,"CCC(F)(F)c1cccc(NC(=O)c2c(C)[nH]c(-c3ccc(OC)cc3)c2O)c1 [Compound 235, N-(3-(1,1-difluoropropyl)phenyl)-4-hydroxy-5-(4-methoxyphenyl)-2-methyl-1H-pyrrole-3-carboxamide]",> 100 nM
4,"COc1ccc(-n2nc(C)c(C(=O)Nc3cccc(C(C)(F)F)c3)c2OC(=O)N2CCC(N3CCCCC3)CC2)cc1 [Compound 188, 4-((3-(1,1-difluoroethyl)phenyl)carbamoyl)-1-(4-methoxyphenyl)-3-methyl-1H-pyrazol-5-yl [1,4′-bipiperidine]-1′-carboxylate]",1 to 100 nM
5,"Cc1oc(-c2ccc(OC(F)F)c(-c3ccccc3)c2)nc1C(=O)Nc1cccc(C(C)(F)F)c1 [Compound 124, N-[3-(1,1-difluoroethyl)phenyl]-2-[4-(difluoromethoxy)-3-phenyl-phenyl]-5-methyl-oxazole-4-carboxamide]",> 100 nM
6,"CCC(F)(F)c1cccc(NC(=O)c2nc(-c3ccc(OC(F)F)cn3)[nH]c2C)c1 [Compound 227, 2-(5-(difluoromethoxy)pyridin-2-yl)-N-(3-(1,1-difluoropropyl)phenyl)-5-methyl-1H-imidazole-4-carboxamide]",> 100 nM
7,"Cc1oc(-c2ccc(OC(F)F)c(-c3cccnc3)c2)nc1C(=O)Nc1cccc(C(C)(F)F)c1 [Compound 220, N-(3-(1,1-difluoroethyl)phenyl)-2-(4-(difluoromethoxy)-3-(pyridin-3-yl)phenyl)-5-methyloxazole-4-carboxamide]",> 100 nM
8,"CCC(F)(F)c1cccc(NC(=O)c2ncc(-c3ccc(OC(F)F)c(-c4ccccc4)c3)nc2C)c1 [Compound 134, 5-[4-(difluoromethoxy)-3-phenyl-phenyl]-N-[3-(1,1-difluoropropyl)phenyl]-3-methyl-pyrazine-2-carboxamide]",> 100 nM
9,"Cc1nn(-c2ccc(OC(F)F)c(-c3ccccn3)c2)c(C)c1C(=O)Nc1cccc(C(C)(F)F)c1 [Compound 177, N-(3-(1,1-difluoroethyl)phenyl)-1-(4-(difluoromethoxy)-3-(pyridin-2-yl)phenyl)-3,5-dimethyl-1H-pyrazole-4-carboxamide]",1 to 100 nM
10,CC1=NN(c2ccc(C=C(c3ccccc3)c3ccccc3)c(Br)c2)C(=O)C1C(=O)Nc1cccc(C(C)(F)F)c1 (stereo not shown) [Compound 110],1 to 100 nM
11,"CCC(F)(F)c1cccc(NC(=O)c2c(C)[nH]c(-c3ccc(OC)cc3)[n+]2[O-])c1 [Compound 248, 4-((3-(1,1-difluoropropyl)phenyl)carbamoyl)-2-(4-methoxyphenyl)-5-methyl-1H-imidazole 3-oxide]",< 1 nM
12,"CCC(F)(F)c1cccc(NC(=O)c2nc(-c3ccc(OC(F)F)c(-c4cccnc4)c3)oc2C)c1 [Compound 221, 2-(4-(difluoromethoxy)-3-(pyridin-3-yl)phenyl)-N-(3-(1,1-difluoropropyl)phenyl)-5-methyloxazole-4-carboxamide]",> 100 nM
13,"CCC(F)(F)c1cccc(NC(=O)c2c(C)nn(-c3ccc(OC)cc3)c2C(=O)OC)c1 [Compound 234, methyl 4-((3-(1,1-difluoropropyl)phenyl)carbamoyl)-1-(4-methoxyphenyl)-3-methyl-1H-pyrazole-5-carboxylate]",> 100 nM
14,"CCC(F)(F)c1cccc(NC(=O)c2cc(C)nc(-c3ccc(OC(F)F)cn3)c2)c1 [Compound 257, 5'-(difluoromethoxy)-N-(3-(1,1-difluoropropyl)phenyl)-6-methyl-[2,2′-bipyridine]-4-carboxamide]",> 100 nM
